In ChEMBL document CHEMBL3102714 (J Med Chem, 2013):
Activity calls are given as the source filed them. No cut-off for these calls is given here. Where a SMILES comes first, the peptide text is derived from it.

Key:
[1] = molecular target: T1, Neuronal acetylcholine receptor; alpha9/alpha10 (Homo sapiens, UniProt Q9GZZ6+Q9UGM1); assay: Inhibition of human alpha9alpha10 nAChR; type: protein-complex assay
[2] = molecular target: T2, Neuronal acetylcholine receptor; alpha3/beta2 (Homo sapiens, UniProt P17787+P32297); assay: Inhibition of human alpha3beta2 nAChR; type: protein-complex assay
[3] = molecular target: T3, Neuronal acetylcholine receptor; alpha3/beta4 (Homo sapiens, UniProt P30926+P32297); assay: Inhibition of human alpha3beta4 nAChR; type: protein-complex assay
[4] = molecular target: T4, Neuronal acetylcholine receptor subunit alpha-7 (Homo sapiens, UniProt P36544); assay: Inhibition of human alpha7 nAChR
[5] = molecular target: T5, Nicotinic acetylcholine receptor alpha6/alpha3/beta2/beta3 (Rattus norvegicus, UniProt P04757+P12390+P12391+P43143); assay: Inhibition of rat alpha6/alpha3beta2beta3 nAChR expressed in Xenopus laevis oocytes assessed as inhibition of ACh-induced current by voltage clamp electrophysiology method; type: cell-based
[6] = molecular target: T6, Neuronal acetylcholine receptor; alpha3/beta4 (Rattus norvegicus, UniProt P04757+P12392); assay: Inhibition of rat alpha3beta4 nAChR expressed in Xenopus laevis oocytes assessed as inhibition of ACh-induced current after 2 to 4 days by voltage clamp electrophysiology method; type: cell-based
[7] = molecular target: T3, Neuronal acetylcholine receptor; alpha3/beta4; assay: Inhibition of alpha3beta4 nAChR (unknown origin) expressed in Xenopus laevis oocytes by two-electrode voltage clamp method; type: cell-based
[8] = molecular target: T4, Neuronal acetylcholine receptor subunit alpha-7; assay: Inhibition of alpha7 nAChR (unknown origin) expressed in Xenopus laevis oocytes by two-electrode voltage clamp method; type: cell-based
[9] = molecular target: T2, Neuronal acetylcholine receptor; alpha3/beta2; assay: Inhibition of alpha3beta2 nAChR (unknown origin) expressed in Xenopus laevis oocytes by two-electrode voltage clamp method; type: cell-based
[10] = molecular target: Neuronal acetylcholine receptor; alpha9/alpha10 (Homo sapiens) (UniProt Q9UGM1+Q9GZZ6); assay: Inhibition of alpha9alpha10 nAChR (unknown origin) expressed in Xenopus laevis oocytes at 1 uM by voltage clamp electrophysiology method; type: cell-based
[11] = molecular target: T2, Neuronal acetylcholine receptor; alpha3/beta2; assay: Inhibition of alpha3beta2 nAChR (unknown origin) expressed in Xenopus laevis oocytes at 1uM by two-electrode voltage clamp method; type: cell-based
[12] = molecular target: T3, Neuronal acetylcholine receptor; alpha3/beta4; assay: Inhibition of alpha3beta4 nAChR (unknown origin) expressed in Xenopus laevis oocytes at 1uM by two-electrode voltage clamp method; type: cell-based
[13] = molecular target: T4, Neuronal acetylcholine receptor subunit alpha-7; assay: Inhibition of alpha7 nAChR (unknown origin) expressed in Xenopus laevis oocytes at 1 uM by two-electrode voltage clamp method; type: cell-based
[14] = molecular target: Neuronal acetylcholine receptor; alpha3/beta2 (Rattus norvegicus) (UniProt P04757+P12390); assay: Inhibition of rat alpha3beta2 nAChR expressed in Xenopus laevis oocytes assessed as inhibition of ACh-induced current at 10 uM after 2 to 4 days by voltage clamp electrophysiology method; type: cell-based
[15] = molecular target: Neuronal acetylcholine receptor; alpha3/beta4 (Rattus norvegicus) (UniProt P04757+P12392); assay: Inhibition of rat alpha3beta4 nAChR expressed in Xenopus laevis oocytes assessed as inhibition of ACh-induced current at 1 uM after 2 to 4 days by voltage clamp electrophysiology method; type: cell-based
[16] = molecular target: Neuronal acetylcholine receptor; alpha4/beta4 (Rattus norvegicus) (UniProt P09483+P12392); assay: Inhibition of rat alpha4beta4 nAChR expressed in Xenopus laevis oocytes assessed as inhibition of ACh-induced current at 10 uM after 2 to 4 days by voltage clamp electrophysiology method; type: cell-based
[17] = molecular target: Nicotinic acetylcholine receptor alpha9/alpha10 (Rattus norvegicus) (UniProt P43144+Q9JLB5); assay: Inhibition of rat alpha9alpha10 nAChR expressed in Xenopus laevis oocytes assessed as inhibition of ACh-induced current at 10 uM after 2 to 4 days by voltage clamp electrophysiology method; type: cell-based
[18] = molecular target: Neuronal acetylcholine receptor subunit alpha-7 (Rattus norvegicus) (UniProt Q05941); assay: Inhibition of rat alpha7 nAChR expressed in Xenopus laevis assessed as inhibition of ACh-induced current at 10 uM after 2 to 4 days by voltage clamp electrophysiology method
[19] = molecular target: T1, Neuronal acetylcholine receptor; alpha9/alpha10; assay: Inhibition of alpha9alpha10 (unknown origin) nAChR; type: protein-complex assay
[20] = molecular target: T4, Neuronal acetylcholine receptor subunit alpha-7; assay: Inhibition of alpha7 (unknown origin) nAChR
[21] = molecular target: Neuronal acetylcholine receptor; alpha2/beta4 (Rattus norvegicus, UniProt P12389+P12392); assay: Inhibition of rat alpha2beta4 nAChR expressed in Xenopus oocytes assessed as inhibition of ACh-induced current by voltage clamp electrophysiology method; type: cell-based
[22] = molecular target: Nicotinic acetylcholine receptor alpha6/alpha3/beta4 (Rattus norvegicus, UniProt P04757+P12392+P43143); assay: Inhibition of rat alpha6/alpha3beta4 nAChR expressed in Xenopus oocytes assessed as inhibition of ACh-induced current by voltage clamp electrophysiology method; type: cell-based
[23] = molecular target: T5, Nicotinic acetylcholine receptor alpha6/alpha3/beta2/beta3; assay: Inhibition of rat alpha6/alpha3beta2beta3 nAChR expressed in Xenopus oocytes assessed as inhibition of ACh-induced current by voltage clamp electrophysiology method; type: cell-based
[24] = molecular target: T6, Neuronal acetylcholine receptor; alpha3/beta4; assay: Inhibition of rat alpha3beta4 nAChR expressed in Xenopus oocytes assessed as inhibition of ACh-induced current by voltage clamp electrophysiology method; type: cell-based
[25] = molecular target: Neuronal acetylcholine receptor; alpha3/beta2 (Rattus norvegicus, UniProt P04757+P12390); assay: Inhibition of rat alpha3beta2 nAChR expressed in Xenopus oocytes assessed as inhibition of ACh-induced current by voltage clamp electrophysiology method; type: cell-based
[26] = molecular target: Neuronal acetylcholine receptor subunit alpha-7 (Rattus norvegicus, UniProt Q05941); assay: Inhibition of rat alpha7 nAChR expressed in Xenopus oocytes assessed as inhibition of ACh-induced current by voltage clamp electrophysiology method; type: cell-based
[27] = molecular target: Neuronal acetylcholine receptor; alpha4/beta4 (Rattus norvegicus, UniProt P09483+P12392); assay: Inhibition of rat alpha4beta4 nAChR expressed in Xenopus oocytes assessed as inhibition of ACh-induced current by voltage clamp electrophysiology method; type: cell-based
[28] = molecular target: Neuronal acetylcholine receptor; alpha2/beta2 (Rattus norvegicus, UniProt P12389+P12390); assay: Inhibition of rat alpha2beta2 nAChR expressed in Xenopus oocytes assessed as inhibition of ACh-induced current by voltage clamp electrophysiology method; type: cell-based
[29] = molecular target: Nicotinic acetylcholine receptor alpha9/alpha10 (Rattus norvegicus, UniProt P43144+Q9JLB5); assay: Inhibition of recombinant rat alpha9alpha10 nAChR expressed in Xenopus laevis oocytes assessed as inhibition of ACh-induced current by voltage clamp electrophysiology method; type: cell-based

T4 sequence (P36544 whole entry): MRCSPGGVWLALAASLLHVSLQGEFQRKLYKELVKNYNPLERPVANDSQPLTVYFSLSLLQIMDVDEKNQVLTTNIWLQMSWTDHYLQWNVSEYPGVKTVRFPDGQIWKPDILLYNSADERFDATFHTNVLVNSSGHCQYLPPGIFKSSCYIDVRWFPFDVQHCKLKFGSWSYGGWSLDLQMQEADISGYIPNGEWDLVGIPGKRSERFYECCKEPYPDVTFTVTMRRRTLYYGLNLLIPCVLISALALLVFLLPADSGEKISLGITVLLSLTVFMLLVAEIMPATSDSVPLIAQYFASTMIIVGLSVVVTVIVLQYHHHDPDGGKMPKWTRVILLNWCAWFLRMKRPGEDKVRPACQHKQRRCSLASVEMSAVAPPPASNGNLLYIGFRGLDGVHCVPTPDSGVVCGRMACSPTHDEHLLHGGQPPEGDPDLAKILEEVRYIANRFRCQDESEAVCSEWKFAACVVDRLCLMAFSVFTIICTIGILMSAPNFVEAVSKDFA
T1 sequence (Q9UGM1 whole entry): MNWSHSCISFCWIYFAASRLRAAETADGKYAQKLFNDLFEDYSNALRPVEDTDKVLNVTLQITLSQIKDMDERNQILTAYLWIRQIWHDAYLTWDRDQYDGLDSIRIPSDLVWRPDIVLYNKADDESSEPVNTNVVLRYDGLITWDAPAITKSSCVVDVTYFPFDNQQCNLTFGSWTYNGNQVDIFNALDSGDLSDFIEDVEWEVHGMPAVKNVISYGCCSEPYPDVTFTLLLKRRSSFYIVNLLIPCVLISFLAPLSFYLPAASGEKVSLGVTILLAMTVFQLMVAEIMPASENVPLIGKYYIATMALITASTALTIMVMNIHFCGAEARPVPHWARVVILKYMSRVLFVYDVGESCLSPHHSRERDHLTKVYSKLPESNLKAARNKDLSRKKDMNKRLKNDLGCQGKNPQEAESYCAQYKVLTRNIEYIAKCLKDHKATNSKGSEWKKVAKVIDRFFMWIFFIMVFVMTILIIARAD
T1 sequence (Q9GZZ6 whole entry): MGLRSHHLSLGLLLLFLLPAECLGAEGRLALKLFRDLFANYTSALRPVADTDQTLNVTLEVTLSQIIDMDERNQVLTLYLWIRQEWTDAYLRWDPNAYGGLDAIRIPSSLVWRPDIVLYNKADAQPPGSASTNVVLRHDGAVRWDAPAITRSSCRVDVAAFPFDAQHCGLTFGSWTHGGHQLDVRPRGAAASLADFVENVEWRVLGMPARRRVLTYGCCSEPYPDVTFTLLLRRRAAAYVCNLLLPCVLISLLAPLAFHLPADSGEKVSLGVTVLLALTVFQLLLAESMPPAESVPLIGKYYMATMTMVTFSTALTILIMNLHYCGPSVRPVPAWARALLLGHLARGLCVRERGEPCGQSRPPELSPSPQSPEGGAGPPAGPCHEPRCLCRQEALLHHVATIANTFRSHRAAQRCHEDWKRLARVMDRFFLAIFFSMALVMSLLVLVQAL
T3 sequence (P30926 whole entry): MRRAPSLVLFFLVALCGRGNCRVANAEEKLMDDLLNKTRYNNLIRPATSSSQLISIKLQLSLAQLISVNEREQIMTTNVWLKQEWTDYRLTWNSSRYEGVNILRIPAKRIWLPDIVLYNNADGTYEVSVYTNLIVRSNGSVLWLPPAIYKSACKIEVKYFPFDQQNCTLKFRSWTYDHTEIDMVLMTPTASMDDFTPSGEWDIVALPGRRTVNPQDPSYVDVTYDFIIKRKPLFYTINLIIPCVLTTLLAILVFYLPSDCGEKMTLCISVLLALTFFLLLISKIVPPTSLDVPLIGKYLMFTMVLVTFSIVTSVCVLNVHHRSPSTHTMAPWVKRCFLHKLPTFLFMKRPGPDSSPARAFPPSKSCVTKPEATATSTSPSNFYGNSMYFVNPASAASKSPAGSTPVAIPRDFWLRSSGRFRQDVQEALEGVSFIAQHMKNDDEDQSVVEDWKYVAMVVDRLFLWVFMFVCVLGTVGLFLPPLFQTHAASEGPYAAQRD
T3 sequence (P32297 whole entry): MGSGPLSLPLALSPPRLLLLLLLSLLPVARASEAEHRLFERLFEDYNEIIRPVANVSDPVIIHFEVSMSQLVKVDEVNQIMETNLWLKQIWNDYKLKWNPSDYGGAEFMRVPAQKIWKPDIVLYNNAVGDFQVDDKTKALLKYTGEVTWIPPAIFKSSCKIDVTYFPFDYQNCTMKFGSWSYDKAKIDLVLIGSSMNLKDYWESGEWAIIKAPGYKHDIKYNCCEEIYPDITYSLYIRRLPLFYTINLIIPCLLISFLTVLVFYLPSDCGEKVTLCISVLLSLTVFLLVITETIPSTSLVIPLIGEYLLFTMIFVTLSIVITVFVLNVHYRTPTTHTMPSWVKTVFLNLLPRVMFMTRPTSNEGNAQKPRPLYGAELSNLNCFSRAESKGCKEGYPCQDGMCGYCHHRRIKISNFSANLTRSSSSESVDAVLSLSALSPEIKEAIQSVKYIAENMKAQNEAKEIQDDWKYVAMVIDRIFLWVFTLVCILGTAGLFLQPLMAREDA
T6 sequence (P04757 whole entry): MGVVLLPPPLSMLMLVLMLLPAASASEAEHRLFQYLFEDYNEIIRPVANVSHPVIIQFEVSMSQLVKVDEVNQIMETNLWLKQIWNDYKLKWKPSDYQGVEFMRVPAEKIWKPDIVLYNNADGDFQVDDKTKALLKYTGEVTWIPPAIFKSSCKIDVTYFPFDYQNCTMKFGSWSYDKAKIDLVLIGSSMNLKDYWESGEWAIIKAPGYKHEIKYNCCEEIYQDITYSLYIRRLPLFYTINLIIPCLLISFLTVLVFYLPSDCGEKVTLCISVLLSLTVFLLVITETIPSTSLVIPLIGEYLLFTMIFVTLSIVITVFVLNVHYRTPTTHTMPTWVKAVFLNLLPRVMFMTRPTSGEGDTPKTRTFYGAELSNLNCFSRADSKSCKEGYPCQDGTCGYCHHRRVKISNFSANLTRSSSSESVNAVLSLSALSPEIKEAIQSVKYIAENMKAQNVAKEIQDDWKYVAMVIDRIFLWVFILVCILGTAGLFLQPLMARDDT
T6 sequence (P12392 whole entry): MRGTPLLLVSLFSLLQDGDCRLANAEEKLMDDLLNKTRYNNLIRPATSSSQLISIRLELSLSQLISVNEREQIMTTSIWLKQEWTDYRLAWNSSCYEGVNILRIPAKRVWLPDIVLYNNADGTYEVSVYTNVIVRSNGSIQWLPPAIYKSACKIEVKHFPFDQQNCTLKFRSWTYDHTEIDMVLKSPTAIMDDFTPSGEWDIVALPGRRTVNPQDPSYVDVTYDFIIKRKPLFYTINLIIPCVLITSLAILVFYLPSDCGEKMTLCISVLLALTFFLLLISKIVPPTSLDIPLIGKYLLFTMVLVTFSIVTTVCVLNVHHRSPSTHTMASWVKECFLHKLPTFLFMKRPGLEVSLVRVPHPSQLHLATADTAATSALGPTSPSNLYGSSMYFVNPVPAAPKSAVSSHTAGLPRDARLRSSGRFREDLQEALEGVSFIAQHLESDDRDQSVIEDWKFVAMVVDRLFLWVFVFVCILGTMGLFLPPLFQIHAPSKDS
T5 sequence (P04757 whole entry): as the sequence (P04757 whole entry) above
T5 sequence (P12390 whole entry): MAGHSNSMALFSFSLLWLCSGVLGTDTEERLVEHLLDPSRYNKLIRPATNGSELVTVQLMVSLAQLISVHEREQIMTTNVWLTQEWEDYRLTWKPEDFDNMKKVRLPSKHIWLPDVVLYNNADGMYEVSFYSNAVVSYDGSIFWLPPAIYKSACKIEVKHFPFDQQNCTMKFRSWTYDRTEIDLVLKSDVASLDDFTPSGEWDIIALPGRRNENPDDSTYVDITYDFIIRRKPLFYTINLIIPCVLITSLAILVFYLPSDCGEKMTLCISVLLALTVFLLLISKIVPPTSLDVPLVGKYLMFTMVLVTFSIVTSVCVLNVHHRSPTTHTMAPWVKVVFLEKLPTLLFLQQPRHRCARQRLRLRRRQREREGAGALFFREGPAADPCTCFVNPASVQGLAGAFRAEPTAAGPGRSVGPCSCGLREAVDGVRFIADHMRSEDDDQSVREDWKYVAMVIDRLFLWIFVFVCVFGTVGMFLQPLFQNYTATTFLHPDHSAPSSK
T5 sequence (P12391 whole entry): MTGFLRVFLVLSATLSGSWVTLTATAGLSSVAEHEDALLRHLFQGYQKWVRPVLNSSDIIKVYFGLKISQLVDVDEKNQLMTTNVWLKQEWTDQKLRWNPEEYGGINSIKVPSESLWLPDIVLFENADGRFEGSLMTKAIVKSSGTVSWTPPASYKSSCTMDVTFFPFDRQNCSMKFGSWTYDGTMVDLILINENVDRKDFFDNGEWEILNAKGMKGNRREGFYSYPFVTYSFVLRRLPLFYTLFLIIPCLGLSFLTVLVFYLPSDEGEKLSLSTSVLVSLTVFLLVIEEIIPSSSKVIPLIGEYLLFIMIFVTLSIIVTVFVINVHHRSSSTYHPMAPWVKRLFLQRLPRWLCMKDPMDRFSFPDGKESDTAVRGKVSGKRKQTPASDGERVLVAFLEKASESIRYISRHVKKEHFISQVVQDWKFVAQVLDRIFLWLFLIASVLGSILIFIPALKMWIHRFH
T5 sequence (P43143 whole entry): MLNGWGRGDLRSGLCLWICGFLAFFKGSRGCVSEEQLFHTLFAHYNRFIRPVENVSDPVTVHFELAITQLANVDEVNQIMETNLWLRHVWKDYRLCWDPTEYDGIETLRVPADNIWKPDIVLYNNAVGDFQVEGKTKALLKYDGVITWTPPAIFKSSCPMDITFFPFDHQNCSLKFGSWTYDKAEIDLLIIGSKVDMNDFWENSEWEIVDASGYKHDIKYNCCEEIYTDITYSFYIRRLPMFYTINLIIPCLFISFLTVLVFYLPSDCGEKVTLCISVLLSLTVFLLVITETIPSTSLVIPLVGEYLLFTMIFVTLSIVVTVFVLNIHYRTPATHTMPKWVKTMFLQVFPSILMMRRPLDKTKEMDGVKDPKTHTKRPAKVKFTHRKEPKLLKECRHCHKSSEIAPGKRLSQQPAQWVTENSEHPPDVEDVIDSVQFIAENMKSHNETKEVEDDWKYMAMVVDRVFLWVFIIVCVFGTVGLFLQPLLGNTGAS

Compound: C[C@@H]1NC(=O)[C@@H]2CSSC[C@H](NC(=O)CN)C(=O)N[C@@H](CSSC[C@@H](C(N)=O)NC(=O)[C@H](CCCNC(=N)N)NC(=O)[C@H](Cc3c[nH]c4ccccc34)NC1=O)C(=O)N[C@@H](CO)C(=O)N[C@@H](CC(=O)O)C(=O)N1CCC[C@H]1C(=O)N[C@@H](CCCNC(=N)N)C(=O)N2
- IC50 [1]: 2000 nM
- IC50 [2]: 41 nM
- IC50 [3]: 3390 nM
- IC50 [4]: 595 nM

Compound: [H][C@@]12CCCN1C(=O)[C@H](Cc1cnc[nH]1)NC(=O)[C@H](CCCCN)NC(=O)[C@H](CC(N)=O)NC(=O)[C@H](CCCNC(=N)N)NC(=O)[C@]1([H])CSSC[C@H](NC(=O)CN)C(=O)N[C@@]([H])(CSSC[C@@H](C(N)=O)NC(=O)[C@H](CC(C)C)NC(=O)[C@H](CC(=O)O)NC2=O)C(=O)N[C@@H](CO)C(=O)N[C@@H](CC(=O)O)C(=O)N2CCC[C@@]2([H])C(=O)N2CCC[C@@]2([H])C(=O)N1 (HELM PEPTIDE1{G.C.C.S.D.P.P.C.R.N.K.H.P.D.L.C.[am]}$PEPTIDE1,PEPTIDE1,2:R3-8:R3|PEPTIDE1,PEPTIDE1,3:R3-16:R3$$$V2.0)
- IC50 [5]: 28.4 nM

Compound: C[C@@H]1NC(=O)[C@H](Cc2ccccc2)NC(=O)[C@@H]2CSSC[C@@H](NC(=O)CN)C(=O)N[C@@H](CSSC[C@@H](C(N)=O)NC(=O)[C@H](CC(=O)O)NC(=O)[C@@H]3CCCN3C(=O)[C@H](CC(N)=O)NC(=O)[C@H]([C@@H](C)O)NC1=O)C(=O)N[C@@H](CO)C(=O)N[C@@H](Cc1ccc(O)cc1)C(=O)N1CCC[C@H]1C(=O)N1CCC[C@H]1C(=O)N2
- IC50 [6]: 750 nM

Compound: CC[C@H](C)[C@@H]1NC(=O)[C@H](Cc2cnc[nH]2)NC(=O)[C@@H]2CCCN2C(=O)[C@H](CC(N)=O)NC(=O)[C@H](CC(N)=O)NC(=O)[C@H](C(C)C)NC(=O)[C@H](CC(N)=O)NC(=O)[C@@H]2CSSC[C@H](NC(=O)CN)C(=O)N[C@@H](CSSC[C@@H](C(N)=O)NC1=O)C(=O)N[C@@H](CO)C(=O)N[C@@H](Cc1cnc[nH]1)C(=O)N1CCC[C@H]1C(=O)N[C@@H](C)C(=O)N2 (HELM PEPTIDE1{G.C.C.S.H.P.A.C.N.V.N.N.P.H.I.C.[am]}$PEPTIDE1,PEPTIDE1,2:R3-8:R3|PEPTIDE1,PEPTIDE1,3:R3-16:R3$$$V2.0)
- IC50 [7]: 97 nM
- IC50 [8]: 103 nM
- IC50 [9]: 33 nM
- inhibition [10]: 22%
- inhibition [11]: Active
- inhibition [12]: Active
- inhibition [13]: Active

Compound: CC[C@H](C)[C@@H]1NC(=O)[C@@H]2CCCN2C(=O)[C@H](CO)NC(=O)[C@H](CCSC)NC(=O)[C@H](C)NC(=O)[C@H](CO)NC(=O)[C@@H]2CSSC[C@H](NC(=O)CN)C(=O)N[C@@H](CSSC[C@@H](C(N)=O)NC1=O)C(=O)N[C@@H](CO)C(=O)N[C@@H](Cc1cnc[nH]1)C(=O)N1CCC[C@H]1C(=O)N[C@@H](C(C)C)C(=O)N2
- inhibition [14]: inactive
- inhibition [15]: Active
- inhibition [16]: inactive
- inhibition [17]: inactive
- inhibition [18]: inactive

Compound: NCC(=O)N[C@H]1CSSC[C@@H]2NC(=O)[C@H](CCCN=C(N)N)NC(=O)[C@@H]3CCCN3C(=O)[C@H](CC(=O)O)NC(=O)[C@H](CO)NC(=O)[C@H](CSSC[C@@H](C(=O)N[C@@H](CCCN=C(N)N)C(N)=O)NC(=O)[C@H](CCCN=C(N)N)NC(=O)[C@H](Cc3ccc(O)cc3)NC(=O)[C@H](CCCN=C(N)N)NC2=O)NC1=O
- IC50 [19]: 5.2 nM
- IC50 [20]: 4700 nM

Compound: [H][C@@]12CCCN1C(=O)[C@]1([H])CCCN1C(=O)[C@]([H])([C@@H](C)O)NC(=O)[C@H](CO)NC(=O)[C@]1([H])CSSC[C@@H](C(N)=O)NC(=O)[C@H](Cc3ccc(O)cc3)NC(=O)[C@H](CC(C)C)NC(=O)[C@H](C(C)C)NC(=O)[C@H](C)NC(=O)[C@]([H])(CSSC[C@H](NC(=O)CN)C(=O)N1)NC2=O (HELM PEPTIDE1{G.C.C.S.T.P.P.C.A.V.L.Y.C.[am]}$PEPTIDE1,PEPTIDE1,2:R3-8:R3|PEPTIDE1,PEPTIDE1,3:R3-13:R3$$$V2.0)
- IC50 [21]: 121 nM
- IC50 [22]: 1.54 nM
- IC50 [23]: 0.26 nM
- IC50 [24]: 27.7 nM
- IC50 [25]: 5.72 nM
- IC50 [26]: 272 nM
- IC50 [27]: 69.9 nM
- IC50 [28]: 800 nM

Compound: CC(C)C[C@@H]1NC(=O)[C@H](CCC(=O)O)NC(=O)[C@@H]2CCCN2C(=O)[C@H](Cc2cnc[nH]2)NC(=O)[C@H](CC(N)=O)NC(=O)[C@H](C(C)C)NC(=O)[C@H](CO)NC(=O)[C@@H]2CSSC[C@H](NC(=O)CN)C(=O)N[C@@H](CSSC[C@@H](C(N)=O)NC1=O)C(=O)N[C@@H](CO)C(=O)N[C@@H](Cc1cnc[nH]1)C(=O)N1CCC[C@H]1C(=O)N[C@@H](C)C(=O)N2 (HELM PEPTIDE1{G.C.C.S.H.P.A.C.S.V.N.H.P.E.L.C.[am]}$PEPTIDE1,PEPTIDE1,2:R3-8:R3|PEPTIDE1,PEPTIDE1,3:R3-16:R3$$$V2.0)
- IC50 [29]: 6.9 nM
